The results in this text go back to PMC4595804, “A strategy to discover decoy chemokine ligands with an anti-inflammatory activity” (Scientific Reports, 2015).

One series addresses T1, CCL22 (Homo sapiens, UniProt O00626).
T1 construct: codes for the mature CCL17 or CCL22 with an N-terminal thioredoxin-hexahistidin (TRX- (His)6) tag; thioredoxin (TRX) (N, cleaved yes); (His)6 (N, cleaved yes); made in house; host or cells: E. coli BL21 (DE3)
T1 sequence (O00626 25-93): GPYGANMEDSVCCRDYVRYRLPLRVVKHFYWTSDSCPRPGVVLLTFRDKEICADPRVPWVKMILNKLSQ
The experiment in a line: TRIC-r calcium assay, neutraligand protocol: compound preincubated with CCL22, EGFP-CCR4+Gqi5+ HEK cells. Type of series: cell-based. The conditions noted are these: for IC50: 5 nM CCL22 preincubated 1 h with compound, 21 °C, read-out: IC50 for CCL22 neutralization (calcium assay); for inhibition at 2 µg/mL: 2 μg/ml compound preincubated 1 h with 5 nM CCL22, read-out: inhibition of CCL22-induced calcium responses (primary screen). As for the experimental part: (§1) EGFP-CCR4^+Gqi5^+HEKcells were loaded with fluorescent Ca^2+-indicator Indo-1 AM (5μM, Interchim) for 45 min at 37 °C. […] Cells (100,000 cells/well, 100μl) were seeded in black clear bottom 96-well plates (Greiner), and centrifuged at 250 × g for 5 min.
(§2) Two plates (96-well plates, Greiner) were prepared for the screen: one containing test compounds alone in order to determine their direct agonistic activity, and another one containing test compounds mixed with CCL17 or CCL22 at room temperature for 1 h (neutraligand protocol). The chemokines and test compounds were prepared at a 3× concentration, while digitonin was prepared at a 4× concentration. The CCR4 antagonist, C-021 served as control in the experiment. In the antagonist protocol, compounds were added to the cell plate (one compound per well) and incubated with cells for 30 min at room temperature, while the agonist (CCL17 or CCL22) was added to the ligand plate only.
(§3) Dye loaded cells were placed in the FlexStation 3 (Molecular Devices). […] For the primary screening, the ligands (50μl of chemokine mixed with DMSO or test compounds) were added to the cells at 40 s, followed by digitonin addition (50μl) at 100 s to the cells. Molecules were screened at a final concentration of 2μg/ml with 5 nM CCL17 or CCL22. […] The calcium response values (height of peak response over baseline) were determined. Hits were selected by comparing the response amplitude at the time of the chemokine addition ± test compound. The Z’ factor[29] was calculated according to the following equation: Z’ = 1-(3SD+ + 3SD−)/|Ave+ − Ave−|, where SD+ and Ave+ are respectively the standard deviation and the mean value of the positive controls (chemokine + DMSO), while SD− and Ave− are respectively the standard deviation and the mean value of the negative controls (HEPES-BSA (0.1%) mixed with DMSO, or cells mixed with C-021). Hit molecules were confirmed by performing concentration-response curves and their half maximal inhibitory concentration (IC50) values were calculated using the Kaleidagraph software.

For another series, the target named is T2, CCL17 (Homo sapiens, UniProt Q92583).
T2 construct: codes for the mature CCL17 or CCL22 with an N-terminal thioredoxin-hexahistidin (TRX- (His)6) tag; thioredoxin (TRX) (N, cleaved yes); (His)6 (N, cleaved yes); made in house; host or cells: E. coli BL21 (DE3)
T2 sequence (Q92583 24-94): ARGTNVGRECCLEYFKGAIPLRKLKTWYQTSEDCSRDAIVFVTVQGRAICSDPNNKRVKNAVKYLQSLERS
The experiment in a line: TRIC-r calcium assay, neutraligand protocol: compound preincubated with CCL17, EGFP-CCR4+Gqi5+ HEK cells. In kind it is cell-based. The following applies: for IC50: 5 nM CCL17 preincubated 1 h with compound, 21 °C, read-out: IC50 for CCL17 neutralization (calcium assay); for inhibition at 2 µg/mL: 2 μg/ml compound preincubated 1 h with 5 nM CCL17, read-out: inhibition of CCL17-induced calcium responses (primary screen). As for the experimental part: as §1, §2, §3

A short description of series [1]: Solubility measurements (RP-HPLC). Type of series: physicochemical. The following applies: dissolved at 10 µM, room temperature; for solubility at 1 h: kinetic from dmso stock. The procedure: Standard stock solutions of compounds (10mM) were prepared in DMSO, and the molecules were dissolved at a concentration of 10µM in each of the three buffers. The samples were shaken for 1h at room temperature, and centrifuged at 15,000×g . The compounds concentration in the supernatant solutions was determined using RP-HPLC (Gilson) technique. The measurements were done with a UV detector set at 230nm. The measurements were carried out at room temperature using a C18 column ([…], 50×4.6mm, Phenomenex). The aqueous mobile phase contained 0.05% trifluoroacetic acid (solvent A, Sigma-Aldrich). The organic phase was HPLC grade acetonitrile (Sigma-Aldrich CHROMASOLV) (solvent B). The mobile phase flow rate was 2ml/min, and the following program was applied for the elution: 0–0.1min, 5% B; 0.1–2.6min, 5–95% B; 2.6–3.1min, 95% B; 3.1–3.3min, 95–5% B; and 3.3–6min, 5% B. To establish external calibration curves, increasing concentrations of each compound were prepared from standard stock solutions.
The chromatograms were recorded by injecting 20µl of each standard solution, and the calibration curves were plotted using peak areas. […]

A further series concerns HUT78 T cells. Description: WST-1 metabolic activity assay. In kind it is cell-based, human. The conditions noted are these: 30 μM, 72 h. An excerpt: WST-1 metabolic activity assay
The colorimetric WST-1 cell metabolic assay (Ozyme) was used to assess the cytotoxic effect of chemokine neutraligands. This is a cell viability test based on the enzymatic cleavage by the mitochondrial succinate-tetrazolium reductase of a tetrazolium salt, WST-1 (4-[3-(4-Iodophenyl)-2-(4-nitrophenyl)-2H-5-tetrazolio]-1,3 benzene disulfonate), into a water- […]
soluble formazan dye which can be detected by absorbance at 420-480nm. HUT78 T cells (or HaCat cells) were seeded on 24-well plates (200,000 cells per well) and were incubated […]
concentration ≤1% on cells). The background control was reserved as one well containing the culture medium only. The plates were incubated for 72h at 37°C. Three days later, the medium containing the neutraligands was removed, and WST-1 reagent (1:10 final dilution) (Ozyme) was added to each well for a 2h incubation at 37°C as the manufacturer’s recommendation. The plates were shaken and absorbance was measured at 450nm (reference wavelength 690nm) against the background control, using a multiwell plate reader (EnVision, Perkin Elmer). Assays were performed as three independent replicates. […]
(Heidelberg, Germany) and was cultured in Dulbecco’s Modified Eagle Medium (DMEM) (Invitrogen) supplemented with 10% fetal bovine serum (FBS) (Gibco-BRL), 100U/ml penicillin (Invitrogen), 100µg/ml streptomycin (Invitrogen) and 2mM L-glutamine (Invitrogen) at 37°C and 5% CO 2. The cells received fresh medium every other day and were subcultured every 10 days. HaCat cells were seeded in a 24-well plate (ESSEN Bioscience) at a density of 200,000 cells per well, and were allowed to grow until confluence. A scratch wound along the cell monolayer was created using the Essen woundmakerTM. Cells were washed twice with PBS to remove detached cells, and were treated with serum-free culture medium in the absence or presence of 100ng/ml chemokine (CCL22 or CCL17) preincubated with DMSO or […]
The molecules were also tested alone […]
without the chemokine. […] One […]
µg/ml of mitomycin C (Sigma-Aldrich) was added throughout the experiment in order to block cell proliferation. Once treated, the cells were immediately placed into the IncuCyteTM live-cell imaging, and the cell migration onto the wounded area was examined for 72h. Phase-contrast images acquired for each sample were captured every 2h (objective lens x10), and […]
Background: Formazan colour is commonly taken as a measure of viable cells.

The target in series [2] is T3, EGFP-CCR4 on HEK cells (human) (UniProt P51679).
T3 sequence: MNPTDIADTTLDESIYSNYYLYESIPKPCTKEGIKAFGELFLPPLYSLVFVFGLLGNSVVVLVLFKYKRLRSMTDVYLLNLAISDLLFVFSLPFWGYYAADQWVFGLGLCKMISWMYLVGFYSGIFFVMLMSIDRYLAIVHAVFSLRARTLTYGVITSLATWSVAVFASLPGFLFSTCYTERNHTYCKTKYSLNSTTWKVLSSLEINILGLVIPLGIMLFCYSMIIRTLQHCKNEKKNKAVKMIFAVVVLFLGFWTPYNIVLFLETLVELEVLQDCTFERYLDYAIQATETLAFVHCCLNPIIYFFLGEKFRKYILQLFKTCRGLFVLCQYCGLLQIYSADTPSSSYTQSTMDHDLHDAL

Where [3] appears, read: HEK293, compound 5 µM, read-out: Inhibition of CCL22 calcium responses (%).
Setting [4] is: HEK293, compound 5 µM, read-out: Inhibition of CCL17 calcium responses (%).
[5] abbreviates: HEPES buffer, aqueous buffer, read-out: solubility in HEPES buffer.
The mark [6] stands for this setting: complete cell culture medium, plasma or biological fluid, read-out: solubility in the cell culture medium.

By inhibition is commonly meant the percentage by which the read-out fell short of the control. As usually defined, the solubility is the concentration that dissolves in the medium under given conditions. As a reminder, the IC50 is the point on the concentration scale where inhibition reaches its midpoint.

In brackets after ≈: the same amount, converted by molar mass. Read-outs that look alike come from different tables or passages of the source.

For the molecule `Cn1c(=O)c2c(ncn2C)n(C)c1=O` [Caffeine, reference compound], the inhibition at 5 µM at CCL22 (setting [3]) and on CCL17 (setting [4]) was 0% throughout. For the same molecule, the “Inhibition of CCL17 calcium responses (%)” value at CCL17 (compound 5 µM) is given as “no effect”.
With `COc1ccc([C@@H](C)C(=O)c2ccc(O)cc2O)cc1` [GPN025, (R)-1-(2,4-dihydroxyphenyl)-2-(4-methoxyphenyl)propan-1-one], the solubility at 1 h in series [1] (setting [5]) and in series [1] (setting [6]) was greater than 10 µM each time. The IC50 at CCL22 is 10600 ± 3700 nM. Also, the inhibition at 2 µg/mL on CCL22 (HEK293) is 44%. In the series on HUT78 T cells, the “inhibition of HUT78 cell metabolic activity” value is 81.3%.
In the case of `COc1cc(C2=N/C(=C\c3ccccc3)C(=O)O2)cc(OC)c1OC` [GPN251, (Z)-4-benzylidene-2-(3,4,5-trimethoxyphenyl)oxazol-5(4H)-one], in series [1] (setting [5]), the solubility at 1 h was 0.7 µM (≈ 0.238 µg/mL). The “solubility in the cell culture medium” value in series [1] (1 h) was “not detected as a free molecule”. Also, the half-inhibitory concentration (IC50) at CCL17 was 900 ± 100 nM. Further, the inhibition at 2 µg/mL on CCL17 (HEK293) was found to be 53%.
As for `CN1C(=O)N(C)C2=NNC=NC2(O)C1=O` (centres unmarked) [GPN355, 4a-hydroxy-6,8-dimethyl-6,8-dihydropyrimido[5,4-e][1,2, 4]triazine-5,7(2H, 4aH)-dione], the solubility at 1 h in series [1] (setting [5]) and in series [1] (setting [6]) was greater than 10 µM in each case. Further, the IC50 on CCL22 was 200 nM; on CCL17 it was 9600 ± 900 nM. The inhibition at 2 µg/mL at CCL22 (HEK293) came out at 100%; at CCL17 (HEK293), 42%. Also, in the series on HUT78 T cells, the “inhibition of HUT78 cell metabolic activity” value is recorded as 23.1%.
For the molecule `O=C(O)c1ccccc1O` [GPN0001207], the “Inhibition of CCL22 calcium responses (%)” value on CCL22 (compound 5 µM, 5 µM) was 0.0%; on CCL22 (compound 5 µM, listed as GPN001207, 5 µM), “no inhibitory effect”. Besides, the “Inhibition of CCL17 calcium responses (%)” value at CCL17 (compound 5 µM) was found to be 0.0%.
Turning to `CC(C)Cn1c(=O)n(C)c(=O)c2[nH]cnc21` [IBMX, 3-isobutyl-1-methyl xanthine, reference compound], the inhibition at 5 µM on CCL22 (setting [3]) and at CCL17 (setting [4]) was 0% throughout. Also, the “Inhibition of CCL17 calcium responses (%)” value at CCL17 (compound 5 µM) is “no effect”.
As for `Cn1c(=O)c2[nH]cnc2n(C)c1=O` [Theophylline, reference compound], the inhibition at 5 µM came out at 0% on CCL22 (HEK293, read-out: Inhibition of CCL22 calcium responses (%)) and 0% on CCL17 (HEK293, read-out: Inhibition of CCL17 calcium responses (%)). In addition, the “Inhibition of CCL17 calcium responses (%)” value on CCL17 (compound 5 µM) is given as “no effect”.
As for `CC(=O)Oc1ccccc1C(=O)O` [aspirin, Acetylsalicylic acid, reference compound], the inhibition at 5 µM at CCL22 (setting [3]) and on CCL17 (setting [4]) was 0% throughout.
As for “recombinant human CCL17 (from UniProt Q92583 24-94) (ligand)”, in series [2], the EC50 of calcium responses in EGFP-CCR4+ Gqi5+ HEK cells at 21 °C is 3.7 nM.

B1: recombinant human CCL22 (ligand)
chain: GPYGANMEDSVCCRDYVRYRLPLRVVKHFYWTSDSCPRPGVVLLTFRDKEICADPRVPWVKMILNKLSQ
Turning to B1, in series [2], the EC50 of calcium responses in EGFP-CCR4+ Gqi5+ HEK cells at 21 °C was determined as 2.9 nM.
